{
  "source": "patent US20050048113A1",
  "about": "“Composition and method for treatment or prevention of oral cavity disorders” (priority 2003, published 2005)",
  "key": {"[1]": {"test_system": "male participants suffering from gingivitis", "experiment": "Loe Silness gingival index (GI) in participants suffering from gingivitis", "assay_type": "in vivo, human", "method": "Twelve male participants (24-42 years old) suffering from gingivitis were divided into 4 groups. Participants of the first group (No.=3) were treated by conventional oral hygiene procedures, including mechanical procedures and usage of mouthwash preparations for 3 months. Participants of the second group (No. =3) were treated by swallowing tablet of Famotidine 40 mg, once daily at bed time, for 3 months. Participants of the third group (No.=3) were treated by sublingual tablet of Famotidine 40 mg, once daily at bed time, for 3 months. Participants of the fourth group (No.=3) were treated by sublingual tablet of Omeprazole 20 mg, once daily at bed time, for 3 months. All participants were screened for dental caries and treated accordingly.\nEach participant was examined at recruitment and after then bi-weekly up to 3 months from recruitment (7 examinations for each participant). At each visit gingival index was determined using a standard Loe Silness gingival index (GI) chart, which is accessible at the following website: http://www.medal.org/sheets/ch9/gingival %20index %20Loe %20Silness.xls.\nThe GI scores of examination No.7 (at 3 months from recruitment) compared to GI scores at examination No.1 (at recruitment), were calculated as mean GI reduction for each group."}, "[2]": {"test_system": "-person suffering from accelerated cariogenicity and progressive gingivitis"}, "[3]": {"conditions": "famotidine 40 mg per day, sublingual vs p.o. vs no treatment, 3 weeks each; pH 1, 2, 3 hours after a meal and at wakeup; preliminary results", "method": "An ongoing study is now being carried out on healthy young (25-40 years old) volunteers. The oral cavity pH is measured 1, 2, and 3 hours after a meal and at wakeup in the morning. These measurements are done daily for each participant, 3 weeks without treatment, 3 weeks under sublingual famotidine (40 mg per day), and 3 weeks under p.o. famotidine (40 mg per day)."}, "[4]": {"test_system": "proton-translocating membrane ATPases of oral streptococci", "conditions": "cited from earlier work"}, "[5]": {"conditions": "Famotidine 40 mg per day, tablets swallowed, half year later"}},
  "data": [
    {"compound": "NC(N)=Nc1nc(CSCCC(N)=NS(N)(=O)=O)cs1", "note": "[Famotidine]", "values": [
      {"measurement": "mean GI reduction", "setting": "[1]; sublingual tablet 40 mg once daily at bed time, 3 months vs recruitment (third group)", "result": 31, "unit": "%"},
      {"measurement": "mean GI reduction", "setting": "[1]; swallowed tablet 40 mg once daily at bed time, 3 months vs recruitment (second group)", "result": 17.1, "unit": "%"},
      {"measurement": "epigastric symptoms", "setting": "[2]; [5]", "result": "relieved"},
      {"measurement": "symptoms of reflux", "setting": "[2]; [5]", "result": "persisted"},
      {"measurement": "reflux symptoms", "setting": "[2]; famotidine tablets taken sublingually instead of swallowed", "result": "relieved"},
      {"measurement": "new caries at twice a year dental follow-ups", "setting": "[2]; next 5 years under sublingual famotidine treatment", "result": "new caries were not detected"},
      {"measurement": "gingivitis", "setting": "[2]; sublingual famotidine, in the following months", "result": "improved dramatically"},
      {"measurement": "rank order of the highest oral cavity pH", "setting": "[3]", "result": "Sublingual Famotidine treatment>p.o. Famotidine treatment>no treatment"}
    ]},
    {"compound": "COc1ccc2[nH]c([S+]([O-])Cc3ncc(C)c(OC)c3C)nc2c1", "note": "(stereo not shown) [Omeprazole]", "values": [
      {"measurement": "mean GI reduction", "setting": "[1]; sublingual tablet 20 mg once daily at bed time, 3 months vs recruitment (fourth group)", "result": 27.5, "unit": "%"}
    ]},
    {"compound": "[N-]=[N+]=[N-]", "note": "[azide]", "values": [
      {"measurement": "sensitivity of proton-translocating membrane ATPases to the inhibitor", "setting": "[4]", "result": "sensitive"}
    ]},
    {"compound": "C(=NC1CCCCC1)=NC1CCCCC1", "note": "[dicyclohexylcarbodiimide]", "values": [
      {"measurement": "sensitivity of proton-translocating membrane ATPases to the inhibitor", "setting": "[4]", "result": "sensitive"}
    ]},
    {"compound": "C[C@@H]1O[C@@H](O[C@H]2C[C@@H](O)[C@]3(CO)[C@H]4[C@H](O)C[C@]5(C)[C@@H](C6=CC(=O)OC6)CC[C@]5(O)[C@@H]4CC[C@]3(O)C2)[C@H](O)[C@H](O)[C@H]1O", "note": "[ouabain]", "values": [
      {"measurement": "sensitivity of proton-translocating membrane ATPases to the inhibitor", "setting": "[4]", "result": "insensitive"}
    ]},
    {"compound": "[O]=[V]([O-])([O-])[O-]", "note": "[vanadate]", "values": [
      {"measurement": "sensitivity of proton-translocating membrane ATPases to the inhibitor", "setting": "[4]", "result": "insensitive"}
    ]}
  ]
}
